In article PMC10009755, “Discovery and Characterization of BAY-805, a Potent and Selective Inhibitor of Ubiquitin-Specific Protease USP21” (Journal of Medicinal Chemistry, 2023):
Where two headings read alike, the source gives them in different places. Values belong to the molecule of their own block, whether it stands above or below them.

Columns and labels:
Dopamine D3 = Dopamine D3 (Homo sapiens, UniProt P35462); assay: Eurofins Panlabs safety screen; type: binding
Adrenergic α2B = target: T1, Adrenergic α2B (Homo sapiens, UniProt P18089); assay: Eurofins Panlabs safety screen; type: binding
T1 construct: Eurofins Panlabs

Cannabinoid CB2 = Cannabinoid CB2 (Homo sapiens, UniProt P34972); assay: Eurofins Panlabs safety screen; type: binding
Adrenergic α2A = target: T2, Adrenergic α2A (Homo sapiens, UniProt P08913); assay: Eurofins Panlabs safety screen; type: binding
T2 construct: Eurofins Panlabs

Opiate μ (OP3, MOP) = target: T3, Opiate μ (OP3, MOP) (Homo sapiens, UniProt P35372); assay: Eurofins Panlabs safety screen; type: binding
T3 construct: Eurofins Panlabs

Opiate κ (OP2, KOP) = target: T4, Opiate κ (OP2, KOP) (Homo sapiens, UniProt P41145); assay: Eurofins Panlabs safety screen; type: binding
T4 construct: Eurofins Panlabs

Fms(h) = target: T5, Fms(h) (Homo sapiens, UniProt P07333); assay: Eurofins kinase panel; type: biochemical
T5 construct: purchased Eurofins (formerly Millipore/Upstate) KinaseProfiler

[1] = target: T6, Serotonin (5-Hydroxytryptamine) 5-HT2C (Homo sapiens, UniProt P28335); assay: Eurofins Panlabs safety screen; type: binding
T6 construct: Eurofins Panlabs

PRP4(h) = target: T7, PRP4(h) (Homo sapiens, UniProt Q13523); assay: Eurofins kinase panel; type: biochemical
T7 construct: purchased Eurofins (formerly Millipore/Upstate) KinaseProfiler

Muscarinic M2 = target: T8, Muscarinic M2 (Homo sapiens, UniProt P08172); assay: Eurofins Panlabs safety screen; type: binding
T8 construct: Eurofins Panlabs

[2] = target: T9, Serotonin (5-Hydroxytryptamine) 5-HT2B (Homo sapiens, UniProt P41595); assay: Eurofins Panlabs safety screen; type: binding
T9 construct: Eurofins Panlabs

Dopamine D1 = Dopamine D1 (Homo sapiens, UniProt P21728); assay: Eurofins Panlabs safety screen; type: binding
Adrenergic α2C = target: T10, Adrenergic α2C (Homo sapiens, UniProt P18825); assay: Eurofins Panlabs safety screen; type: binding
T10 construct: Eurofins Panlabs

Cannabinoid CB1 = Cannabinoid CB1 (Homo sapiens, UniProt P21554); assay: Eurofins Panlabs safety screen; type: binding
Muscarinic M3 = target: T11, Muscarinic M3 (Homo sapiens, UniProt P20309); assay: Eurofins Panlabs safety screen; type: binding
T11 construct: Eurofins Panlabs

[3] = target: T12, Serotonin (5-Hydroxytryptamine) 5-HT2A (Homo sapiens, UniProt P28223); assay: Eurofins Panlabs safety screen; type: binding
T12 construct: Eurofins Panlabs

[4] = target: T13, Serotonin (5-Hydroxytryptamine) 5-HT1A (Homo sapiens, UniProt P08908); assay: Eurofins Panlabs safety screen; type: binding
T13 construct: Eurofins Panlabs

Opiate δ1 (OP1, DOP) = target: T14, Opiate δ1 (OP1, DOP) (Homo sapiens, UniProt P41143); assay: Eurofins Panlabs safety screen; type: binding
T14 construct: Eurofins Panlabs

Androgen (Testosterone) = Androgen (Testosterone) (Homo sapiens, UniProt P10275); assay: Eurofins Panlabs safety screen; type: binding
[5] = target: T15, Nicotinic Acetylcholine α3β4 (Homo sapiens, UniProt P30926+P32297); assay: Eurofins Panlabs safety screen; type: binding
T15 construct: Eurofins Panlabs

Muscarinic M1 = target: T16, Muscarinic M1 (Homo sapiens, UniProt P11229); assay: Eurofins Panlabs safety screen; type: binding
T16 construct: Eurofins Panlabs

Adrenergic α1A = target: T17, Adrenergic α1A (Homo sapiens, UniProt P35348); assay: Eurofins Panlabs safety screen; type: binding
T17 construct: Eurofins Panlabs

Muscarinic M4 = target: T18, Muscarinic M4 (Homo sapiens, UniProt P08173); assay: Eurofins Panlabs safety screen; type: binding
T18 construct: Eurofins Panlabs

Dopamine D2S = Dopamine D2S (Homo sapiens, UniProt P14416); assay: Eurofins Panlabs safety screen; type: binding
[6] = target: T19, Cholinesterase, Acetyl, ACES (Homo sapiens, UniProt P22303); assay: Eurofins Panlabs safety screen; type: biochemical
T19 construct: Eurofins Panlabs

Dopamine D2L = Dopamine D2L (Homo sapiens, UniProt P14416); assay: Eurofins Panlabs safety screen; type: binding
USP21 [7] = target: T20, USP21 (Homo sapiens, UniProt Q9UK80); assay: SPR binding; conditions: equilibrium binding, 15 °C
T20 construct: made in house; host or cells: E. coli BL21(DE3)

USP21 [8] = target: T21, USP21 (Homo sapiens, UniProt Q9UK80)
T21 sequence (Q9UK80 1-565): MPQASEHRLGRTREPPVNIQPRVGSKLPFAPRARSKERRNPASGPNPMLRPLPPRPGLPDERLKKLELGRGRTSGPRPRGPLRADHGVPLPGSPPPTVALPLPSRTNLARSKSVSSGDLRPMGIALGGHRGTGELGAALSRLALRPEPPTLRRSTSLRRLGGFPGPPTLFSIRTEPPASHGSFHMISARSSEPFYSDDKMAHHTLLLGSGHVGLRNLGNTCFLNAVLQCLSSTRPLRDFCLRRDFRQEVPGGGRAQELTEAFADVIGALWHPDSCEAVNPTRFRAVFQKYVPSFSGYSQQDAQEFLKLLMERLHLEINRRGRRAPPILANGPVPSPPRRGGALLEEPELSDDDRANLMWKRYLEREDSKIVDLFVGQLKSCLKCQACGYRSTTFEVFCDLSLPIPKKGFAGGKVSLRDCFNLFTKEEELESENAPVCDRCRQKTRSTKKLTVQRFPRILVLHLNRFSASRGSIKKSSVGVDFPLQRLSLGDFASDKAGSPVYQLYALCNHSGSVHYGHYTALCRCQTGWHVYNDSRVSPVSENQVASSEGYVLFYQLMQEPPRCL

USP21 [9] = target: T21, USP21; assay: Thermal shift assay (TSA); type: binding; design: purchased Ubiquigent (DUBprofiler service); conditions: 100 μM compound
Procedure: Experiments were carried out with the QuantStudio7 Flex Real-Time PCR system (Thermo Fisher Scientific) in a 384-well plate format with 5 μL of reaction volume. Melting curves were obtained at an USP21 protein concentration of 3.8 μM and 5xSYPRO Orange (Invitrogen) using a buffer containing 20 mM Tris, pH 7.5; 150 mM NaCl; 10% glycerol; and 1.0 mM TCEP. […] For binding experiments, compounds were added from 10 mM stock solution to a final concentration of 100 μM. As a control, 1% DMSO was used. Scans were measured from 25 to 95 °C at a scanning rate of 4 °C/min. All TSA data were analyzed using a Genedata Assay Analyzer.

USP21 [10] = target: T21, USP21; remark: listed apart in the source
log D measurement (HPLC) = type: physicochemical; conditions: reverse-phase HPLC, pH 7.5, pH 7.5, HPLC method; read-out: logD7.5
Procedure: log D values at pH 7.5 were recorded using an indirect method for determining hydrophobicity constants by reverse-phase HPLC. A series of compounds with well-known log D values were used for calibration. Test compounds were injected into the same HPLC system. The lipophilicity of compounds was then assessed by comparison to the calibration curve.

USP21 [11] = target: T21, USP21; assay: Ubiquitin aminoluciferin (Ub-AML) assay; type: biochemical; design: […]; ZZ tag; made in house
Procedure: The final assay volume was 8 μL. […] The reaction was stopped with 2 μL of 200 μM PR619. Then, 2 μL of luciferin detection reagent (Promega V8920/1) was used to detect luciferin at a final concentration of 0.5-fold. For the luminescence detection, 1536-well plates (Greiner, white) were measured on the ViewLux at 120 s exposure time.

[12] = tested on: panel of 10 individual USPs; assay: SGC USP selectivity screen, whole panel; type: biochemical; conditions: 10 and 50 μM
USP2 [13] = target: T22, USP2 (Homo sapiens, UniProt O75604); assay: hUSP2 Ub-rhodamine 110 assay; type: biochemical; conditions: arithmetic means of multiple measurements; read-out: IC50 hUSP2 Ub-Rhod
T22 construct: His tag
T22 sequence (O75604 259-605): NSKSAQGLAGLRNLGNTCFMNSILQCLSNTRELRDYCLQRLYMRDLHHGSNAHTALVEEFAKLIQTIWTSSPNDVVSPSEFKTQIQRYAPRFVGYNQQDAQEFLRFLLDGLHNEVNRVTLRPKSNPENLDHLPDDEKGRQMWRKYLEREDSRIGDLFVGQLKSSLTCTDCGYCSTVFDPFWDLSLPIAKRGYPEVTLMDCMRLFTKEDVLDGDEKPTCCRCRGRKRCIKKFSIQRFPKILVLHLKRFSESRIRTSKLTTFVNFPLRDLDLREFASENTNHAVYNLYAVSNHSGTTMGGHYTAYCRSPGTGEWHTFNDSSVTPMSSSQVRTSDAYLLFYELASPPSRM
Procedure: The final assay volume was 6 μL.

USP2 [14] = target: T22, USP2; assay: Thermal shift assay (TSA); type: binding; conditions: 100 μM compound
USP7 = target: T23, USP7 (Homo sapiens, UniProt Q93009); assay: Thermal shift assay (TSA); type: binding; conditions: 100 μM compound
T23 construct: purchased Ubiquigent (DUBprofiler service)

T19 sequence (P22303 32-614): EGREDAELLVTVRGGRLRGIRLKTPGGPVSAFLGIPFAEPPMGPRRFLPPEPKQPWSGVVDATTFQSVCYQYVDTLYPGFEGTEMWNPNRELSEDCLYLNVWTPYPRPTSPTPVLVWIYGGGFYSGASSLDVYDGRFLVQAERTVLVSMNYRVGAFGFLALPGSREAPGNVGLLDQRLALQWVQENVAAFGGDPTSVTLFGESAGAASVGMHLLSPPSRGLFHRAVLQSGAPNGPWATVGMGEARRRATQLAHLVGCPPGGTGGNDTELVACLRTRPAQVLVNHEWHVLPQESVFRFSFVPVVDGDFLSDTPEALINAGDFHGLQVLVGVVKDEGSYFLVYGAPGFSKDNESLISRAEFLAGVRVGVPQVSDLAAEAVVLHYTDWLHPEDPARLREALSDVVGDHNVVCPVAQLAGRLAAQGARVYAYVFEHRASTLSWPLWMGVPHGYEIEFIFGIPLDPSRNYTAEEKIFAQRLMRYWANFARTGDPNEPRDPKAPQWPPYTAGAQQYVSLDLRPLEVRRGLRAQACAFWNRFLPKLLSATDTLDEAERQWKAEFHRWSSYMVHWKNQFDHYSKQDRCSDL
T2 sequence (P08913 whole entry): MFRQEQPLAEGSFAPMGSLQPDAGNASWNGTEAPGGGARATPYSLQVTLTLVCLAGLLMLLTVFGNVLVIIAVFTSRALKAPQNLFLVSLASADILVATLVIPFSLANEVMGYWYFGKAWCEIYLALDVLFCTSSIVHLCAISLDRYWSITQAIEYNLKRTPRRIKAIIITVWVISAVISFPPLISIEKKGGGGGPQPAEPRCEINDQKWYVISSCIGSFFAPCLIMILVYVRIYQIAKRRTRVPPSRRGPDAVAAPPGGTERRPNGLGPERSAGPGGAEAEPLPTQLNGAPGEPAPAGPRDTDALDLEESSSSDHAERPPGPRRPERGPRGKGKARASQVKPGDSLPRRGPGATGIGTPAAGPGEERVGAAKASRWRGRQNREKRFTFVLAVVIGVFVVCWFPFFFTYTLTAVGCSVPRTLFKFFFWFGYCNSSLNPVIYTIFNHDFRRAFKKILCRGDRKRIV
T15 sequence (P32297 32-505): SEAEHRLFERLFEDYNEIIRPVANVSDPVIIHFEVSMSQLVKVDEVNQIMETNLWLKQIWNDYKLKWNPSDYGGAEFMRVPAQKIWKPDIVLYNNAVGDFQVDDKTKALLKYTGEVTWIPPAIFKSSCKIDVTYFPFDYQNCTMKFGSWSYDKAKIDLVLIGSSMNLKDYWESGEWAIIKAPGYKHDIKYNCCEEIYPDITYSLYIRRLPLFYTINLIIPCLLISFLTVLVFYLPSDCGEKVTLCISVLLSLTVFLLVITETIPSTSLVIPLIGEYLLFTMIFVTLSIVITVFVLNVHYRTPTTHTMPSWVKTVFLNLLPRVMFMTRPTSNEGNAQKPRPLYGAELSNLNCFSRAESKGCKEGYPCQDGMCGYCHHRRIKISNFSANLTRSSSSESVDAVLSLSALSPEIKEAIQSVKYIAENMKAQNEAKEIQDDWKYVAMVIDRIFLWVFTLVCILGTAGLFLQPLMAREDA
T15 sequence (P30926 22-498): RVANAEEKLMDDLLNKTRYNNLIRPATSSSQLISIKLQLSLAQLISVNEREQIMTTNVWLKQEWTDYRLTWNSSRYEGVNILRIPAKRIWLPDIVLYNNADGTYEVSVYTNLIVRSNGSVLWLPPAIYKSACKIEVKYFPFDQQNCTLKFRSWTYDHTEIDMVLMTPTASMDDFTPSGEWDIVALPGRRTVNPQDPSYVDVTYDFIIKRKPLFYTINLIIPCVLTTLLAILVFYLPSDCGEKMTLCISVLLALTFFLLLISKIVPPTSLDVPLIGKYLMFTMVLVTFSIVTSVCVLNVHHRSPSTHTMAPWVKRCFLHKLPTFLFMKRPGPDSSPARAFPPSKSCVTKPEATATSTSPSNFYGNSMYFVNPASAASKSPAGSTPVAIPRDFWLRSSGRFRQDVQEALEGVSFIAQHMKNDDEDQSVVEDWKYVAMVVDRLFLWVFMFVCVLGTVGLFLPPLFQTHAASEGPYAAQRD
T7 sequence (Q13523 whole entry): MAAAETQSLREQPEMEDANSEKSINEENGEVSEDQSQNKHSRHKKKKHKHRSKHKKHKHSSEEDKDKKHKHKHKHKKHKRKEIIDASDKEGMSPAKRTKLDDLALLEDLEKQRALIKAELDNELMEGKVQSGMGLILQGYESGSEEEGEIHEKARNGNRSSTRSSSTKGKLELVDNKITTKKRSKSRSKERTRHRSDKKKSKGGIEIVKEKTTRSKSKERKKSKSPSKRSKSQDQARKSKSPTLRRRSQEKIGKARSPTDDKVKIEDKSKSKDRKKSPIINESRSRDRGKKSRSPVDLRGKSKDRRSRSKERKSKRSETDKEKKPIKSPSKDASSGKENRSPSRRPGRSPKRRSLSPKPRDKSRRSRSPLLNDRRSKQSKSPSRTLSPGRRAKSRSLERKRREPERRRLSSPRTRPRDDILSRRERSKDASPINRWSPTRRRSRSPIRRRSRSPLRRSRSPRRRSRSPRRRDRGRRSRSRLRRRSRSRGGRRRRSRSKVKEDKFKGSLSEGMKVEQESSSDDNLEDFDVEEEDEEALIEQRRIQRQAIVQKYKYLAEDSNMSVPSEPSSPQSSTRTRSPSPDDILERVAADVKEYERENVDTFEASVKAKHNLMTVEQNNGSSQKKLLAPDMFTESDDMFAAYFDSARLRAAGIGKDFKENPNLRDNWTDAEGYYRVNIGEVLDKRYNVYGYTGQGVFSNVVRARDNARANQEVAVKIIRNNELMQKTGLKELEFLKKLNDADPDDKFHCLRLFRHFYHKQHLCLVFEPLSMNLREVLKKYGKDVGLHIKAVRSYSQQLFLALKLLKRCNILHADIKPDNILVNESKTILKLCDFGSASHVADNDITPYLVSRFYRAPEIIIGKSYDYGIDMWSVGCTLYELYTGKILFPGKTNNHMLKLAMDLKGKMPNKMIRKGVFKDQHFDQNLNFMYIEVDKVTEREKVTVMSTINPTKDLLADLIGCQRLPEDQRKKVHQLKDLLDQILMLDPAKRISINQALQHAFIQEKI
T1 sequence (P18089 whole entry): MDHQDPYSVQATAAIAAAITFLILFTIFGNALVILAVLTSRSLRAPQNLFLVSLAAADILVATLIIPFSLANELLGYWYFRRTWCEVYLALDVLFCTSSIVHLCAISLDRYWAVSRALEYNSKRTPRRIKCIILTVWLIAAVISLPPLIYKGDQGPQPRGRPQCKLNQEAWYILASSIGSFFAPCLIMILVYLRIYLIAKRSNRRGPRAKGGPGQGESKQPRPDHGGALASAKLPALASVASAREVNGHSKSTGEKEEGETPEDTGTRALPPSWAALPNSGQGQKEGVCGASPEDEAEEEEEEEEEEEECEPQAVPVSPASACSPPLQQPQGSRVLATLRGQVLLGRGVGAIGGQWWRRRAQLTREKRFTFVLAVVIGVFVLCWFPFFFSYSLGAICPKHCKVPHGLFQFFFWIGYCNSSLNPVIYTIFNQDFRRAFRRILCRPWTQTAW
T5 sequence (P07333 20-972): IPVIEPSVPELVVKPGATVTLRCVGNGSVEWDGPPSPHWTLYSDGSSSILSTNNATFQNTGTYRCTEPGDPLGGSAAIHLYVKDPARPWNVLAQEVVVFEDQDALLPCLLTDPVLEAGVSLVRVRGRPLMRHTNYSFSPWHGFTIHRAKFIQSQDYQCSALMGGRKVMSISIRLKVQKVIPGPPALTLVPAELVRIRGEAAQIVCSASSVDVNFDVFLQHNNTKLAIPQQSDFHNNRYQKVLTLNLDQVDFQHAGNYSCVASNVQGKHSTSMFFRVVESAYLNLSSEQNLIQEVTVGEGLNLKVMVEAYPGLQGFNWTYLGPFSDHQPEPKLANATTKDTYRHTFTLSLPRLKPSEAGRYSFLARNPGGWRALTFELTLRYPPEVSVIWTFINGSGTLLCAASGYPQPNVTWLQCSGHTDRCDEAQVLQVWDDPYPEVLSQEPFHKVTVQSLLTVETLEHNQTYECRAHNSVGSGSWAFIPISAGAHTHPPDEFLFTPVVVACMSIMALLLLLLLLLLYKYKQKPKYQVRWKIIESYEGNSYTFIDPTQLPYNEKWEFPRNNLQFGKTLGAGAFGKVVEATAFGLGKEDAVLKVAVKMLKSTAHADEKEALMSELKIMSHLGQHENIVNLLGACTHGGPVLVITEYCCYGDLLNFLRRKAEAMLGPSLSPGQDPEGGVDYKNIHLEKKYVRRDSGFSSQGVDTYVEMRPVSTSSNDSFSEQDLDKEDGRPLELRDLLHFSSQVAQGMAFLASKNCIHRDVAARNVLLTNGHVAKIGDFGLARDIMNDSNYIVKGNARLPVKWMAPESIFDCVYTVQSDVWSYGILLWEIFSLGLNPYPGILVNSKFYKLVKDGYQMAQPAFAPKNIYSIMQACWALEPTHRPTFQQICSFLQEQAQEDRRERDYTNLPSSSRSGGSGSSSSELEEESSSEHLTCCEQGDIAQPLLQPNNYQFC
T17 sequence (P35348 whole entry): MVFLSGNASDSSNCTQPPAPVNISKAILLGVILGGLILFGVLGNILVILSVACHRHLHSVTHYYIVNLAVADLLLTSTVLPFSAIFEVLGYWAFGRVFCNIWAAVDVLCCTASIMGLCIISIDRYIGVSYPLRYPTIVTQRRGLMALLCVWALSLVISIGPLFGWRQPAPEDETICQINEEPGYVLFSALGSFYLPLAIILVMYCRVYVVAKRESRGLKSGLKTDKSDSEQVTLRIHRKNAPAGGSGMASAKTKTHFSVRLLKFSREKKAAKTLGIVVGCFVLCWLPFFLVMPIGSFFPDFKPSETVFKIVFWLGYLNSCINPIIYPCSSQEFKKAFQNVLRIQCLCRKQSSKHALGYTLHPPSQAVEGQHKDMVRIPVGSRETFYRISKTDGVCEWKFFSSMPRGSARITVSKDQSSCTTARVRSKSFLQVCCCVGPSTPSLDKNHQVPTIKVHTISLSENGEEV

SMILES: CC(C)C[C@H](NC(=O)C1(C(F)(F)F)CCCCC1)C(=O)Nc1nnc(Cc2ccc(C#N)cc2)s1 [Compound 22, CC(C)C[C@H](NC(=O)C1(CCCCC1)C(F)(F)F)C(=O)Nc2nnc(Cc3ccc(cc3)C#N)s2]
inhibition at 10 µM (Dopamine D3): 2%
inhibition at 10 µM (Adrenergic α2B): 1%
inhibition at 10 µM (Cannabinoid CB2): 4%
inhibition at 10 µM (Adrenergic α2A): 13%
inhibition at 10 µM (Opiate μ (OP3, MOP)): -3%
inhibition at 10 µM (Opiate κ (OP2, KOP)): 12%
inhibition at 10 µM (Fms(h)): 0.62%
inhibition at 10 µM [1]: 14%
inhibition at 10 µM (PRP4(h)): -7.38%
inhibition at 10 µM (Muscarinic M2): 24%
inhibition at 10 µM [2]: 2%
inhibition at 10 µM (Dopamine D1): 2%
inhibition at 10 µM (Adrenergic α2C): 12%
inhibition at 10 µM (Cannabinoid CB1): 3%
inhibition at 10 µM (Muscarinic M3): 4%
inhibition at 10 µM [3]: 2%
inhibition at 10 µM [4]: 5%
inhibition at 10 µM (Opiate δ1 (OP1, DOP)): 5%
inhibition at 10 µM (Androgen (Testosterone)): 7%
inhibition at 10 µM [5]: -1%
inhibition at 10 µM (Muscarinic M1): 36%
inhibition at 10 µM (Adrenergic α1A): 13%
inhibition at 10 µM (Muscarinic M4): -8%
inhibition at 10 µM (Dopamine D2S): 25%
IC50 [6]: 6.87 µM
inhibition at 10 µM [6]: 75%
inhibition at 0.1 µM ([6]; IC50 determination, 0.1 µM): 18%
inhibition at 0.3 µM ([6]; IC50 determination, 0.3 µM): 4%
inhibition at 1 µM ([6]; IC50 determination, 1 µM): 19%
inhibition at 3 µM ([6]; IC50 determination, 3 µM): 8%
inhibition at 10 µM ([6]; IC50 determination): 76%
inhibition at 30 µM ([6]; IC50 determination, 30 µM): 78%
inhibition at 10 µM (Dopamine D2L): 17%

Kd (USP21 [7]): 7.87 µM
IC50 (USP21 [8]): > 22.5 µM
ΔTm at 100 µM (USP21 [9]): 4.9 °C
IC50 (USP21 [10]): 11.8 µM
chromatographic logD (log D measurement (HPLC)): 2.3
IC50 (USP21 [11]): > 22.5 µM
IC50 (USP2 [13]): > 25 µM
ΔTm at 100 µM (USP2 [14]): 0 °C
ΔTm at 100 µM (USP7): 0 °C
SMILES: CC(NC(=O)C1CCCC1)C(=O)Nc1nnc(Cc2ccc([N+](=O)[O-])cc2)s1 (stereo not shown) [Compound 1, CC(NC(=O)C1CCCC1)C(=O)Nc2nnc(Cc3ccc(cc3)[N+](=O)[O-])s2]
inhibition of other tested DUB targets besides USP21 [12]: ≤ 50%
